This test has as its target T1, human CB2 (Homo sapiens, UniProt P34972).
T1 construct: expressed in transfected cells; host or cells: HEK-293T (transient transfection, membrane preparation)
The experiment in a line: CB2 receptor binding assay, block of [3H]-CP 55,940 binding. The conditions noted are these: membranes of HEK-293T cells transfected with human CB2 cDNA; 1.5 nM [3H]-CP 55,940. As to the method:
Membrane preparation—HEK-293T cells were cultured according to ATCC (Manassas, Va.) guidelines and transfected with human CB2 cDNA (SEQ ID NO:1) (Genbank X74328), operably linked to the SV40 promoter, using Polyfect (Qiagen, Valencia, Calif.) or Fugene (Roche, Nutley, N.J.) according to manufacturer's instructions. 48 h after transfection cells were harvested in ice cold membrane buffer (20 mM HEPES, 6 mM MgCl2, 1 mM EDTA, pH 7.2) using a cell scraper. Cells were transferred to a nitrogen cavitation chamber and a pressure of […] was applied for 30 min. The pressure was released and the cell debris was collected and centrifuged at 1000 g at 4° C. for 10 min. The supernatant was collected and the spin was repeated until the supernatant was free of precipitate. Membranes were then pelleted by centrifugation at 12.000 g at 4° C. for 20 min. Membranes were resuspended in an appropriate amount of membrane buffer. The membrane concentration was determined using a BioRad (Hercules, Calif.) protein assay dye reagent according to manufacturer's instructions. Membranes were diluted to 1 mg/ml and aliquots snap-frozen in liquid nitrogen and store at −80° C.
Binding assay—0.5-10 ng of membranes were incubated in binding buffer (50 mM Tris, 0.5 mM EDTA, 0.1% BSA, pH 7.4) in the presence of 1.5 nM radioligand ([^3H]-CP 55,940 Perkin Elmer) and varying concentrations of ligands (total volume 100 μL in a 96 well plate). Membranes were filtered onto a 96 well GF/B filterplate (Packard Bioscience, Shelton, Conn.) and washed with […] wash buffer (25 mM HEPES, 1 mM CaCl2, 5 mM MgCl2, 0.25M NaCl) using a Filtermate 196 Harvester (Packard Instruments, Downers Grove, Ill.). The filter plates were dried under a heat lamp before addition of 50 μL of scintillation fluid to each well (Microscint 20, Packard, Shelton, Conn.). Plates were counted on a Topcount NXT (Packard, Shelton, Conn.).
Data Analysis—Graphs were plotted and KD values were determined by nonlinear regression analysis using Prism software (GraphPad version 4.0, San Diego, Calif., USA).

T1 sequence (P34972 whole entry): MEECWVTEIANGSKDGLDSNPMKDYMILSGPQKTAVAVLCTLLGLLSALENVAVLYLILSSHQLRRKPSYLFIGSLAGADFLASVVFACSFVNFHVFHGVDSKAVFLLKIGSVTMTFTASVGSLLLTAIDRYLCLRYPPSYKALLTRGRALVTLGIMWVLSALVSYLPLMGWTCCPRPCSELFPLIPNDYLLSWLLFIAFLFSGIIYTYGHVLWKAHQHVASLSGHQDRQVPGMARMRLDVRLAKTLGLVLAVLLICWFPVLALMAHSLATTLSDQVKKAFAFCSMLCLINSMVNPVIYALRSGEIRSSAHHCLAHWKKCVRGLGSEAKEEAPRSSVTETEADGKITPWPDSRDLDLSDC

The compound `Cc1cncc2nc(-c3c(F)cccc3Cl)c(Nc3ccc4c(c3)OCCO4)n12` [CR-58] had a pKi of 7.2.

Turning to `Cc1ccc2nc(-c3cccc(F)n3)c(Nc3ccc4c(c3)OCCO4)n2c1` [CR-59], the negative logarithm of the Ki (pKi) is reported as 7.1.

With `COc1cc(-c2nc3cc(C)ccn3c2Nc2ccc3c(c2)OCCO3)ccc1O` [CR-60], the pKi worked out at 7.1.

`COc1ccnc2nc(-c3c(F)cc(OCCF)cc3F)c(Nc3ccc4c(c3)OCCO4)n12` [CR-61] displayed a pKi of 7.0.

`CCC(C)Oc1cccc2nc(-c3c(F)cccc3Cl)c(Nc3ccc4c(c3)OCCO4)n12` (stereo not shown) [CR-62] registered a pKi of 7.0.

In turn, `Fc1cccc(-c2nc3ccccn3c2Nc2ccc3c(c2)OCCO3)n1` [CR-63] had a pKi of 7.0.

`Clc1cncc(Cl)c1-c1nc2ccccn2c1Nc1ccc2c(c1)OCCO2` [CR-64]: the negative-log Ki (pKi) turned out to be 7.0.

Turning to `COc1cc(O)ccc1-c1nc2cccc(C)n2c1Nc1ccc2c(c1)OCCO2` [CR-65], the negative logarithm of the Ki (pKi) was 6.9.

`COc1ccc2nc(-c3c(Cl)cncc3Cl)c(Nc3ccc4c(c3)OCCO4)n2c1` [CR-66] displayed a pKi of 6.9.

In the case of `COc1ccc2nc(-c3c(F)cccc3Cl)c(Nc3ccc4c(c3)OCCO4)n2c1OC` [CR-67], the negative-log Ki (pKi) turned out to be 6.9.

Take `Cc1ccn2c(Nc3ccc4c(c3)OCCO4)c(-c3c(Cl)cccc3Cl)nc2c1` [CR-68]: the pKi is reported as 6.9.

On to `Cc1cccc2nc(-c3ccc(OCCF)c(O)c3)c(Nc3ccc4c(c3)OCCO4)n12` [CR-69], for which the pKi is on record as 6.8.

`COc1cc(-c2nc3ncccn3c2Nc2ccc3c(c2)OCCO3)ccc1O` [CR-70] returned a pKi of 6.8.

The compound `COc1cc(-c2nc3ccccn3c2Nc2ccc3c(c2)OCCO3)ccc1O` [CR-71] gave a negative logarithm of the Ki (pKi) of 6.8.

As to `COc1cc(-c2nc3c(C)cccn3c2Nc2ccc3c(c2)OCCO3)ccc1O` [CR-72], the pKi came out at 6.8.

With `COc1ccnc2nc(-c3c(C)cc(OCCF)cc3C)c(Nc3ccc4c(c3)OCCO4)n12` [CR-73], the pKi worked out at 6.8.

As to `Cc1cccc(C)c1-c1nc2ncccn2c1Nc1ccc2c(c1)OCCO2` [CR-74], the pKi is reported as 6.8.

In turn, `COc1cc(-c2nc3cnccn3c2Nc2ccc3c(c2)OCCO3)ccc1O` [CR-75] returned a pKi of 6.8.

As to `Fc1cccnc1-c1nc2cnccn2c1Nc1ccc2c(c1)OCCO2` [CR-76], the pKi came out at 5.2.

As to `COc1cc(-c2nc3ccc(Cl)cn3c2Nc2ccc3c(c2)OCCO3)ccc1O` [CR-77], the pKi is listed as 6.7.

On to `Fc1ncccc1-c1nc2cnccn2c1Nc1ccc2c(c1)OCCO2` [CR-78], for which the pKi stood at 5.4.

`COc1cc(O)ccc1-c1nc2ccccn2c1Nc1ccc2c(c1)OCCO2` [CR-79] displayed a pKi of 6.7.

Compound `Cc1cn2c(Nc3ccc4c(c3)OCCO4)c(-c3c(F)cccc3Cl)nc2cn1` [CR-80] returned a pKi of 6.7.

Regarding `COc1cc(-c2nc3ccc(C)cn3c2Nc2ccc3c(c2)OCCO3)ccc1O` [CR-81], the pKi worked out at 6.7.

In the case of `Cc1cccc(C)c1-c1nc2cnccn2c1Nc1ccc2c(c1)OCCO2` [CR-82], the pKi is reported as 6.7.

As for `Fc1cc(-c2nc3cnccn3c2Nc2ccc3c(c2)OCCO3)ccn1` [CR-83], the pKi is reported as 5.5.

On to `Cc1cccc2nc(-c3cccc(F)n3)c(Nc3ccc4c(c3)OCCO4)n12` [CR-84], for which the pKi stood at 6.7.

The compound `COc1cc(O)ccc1-c1nc2ccc(C)cn2c1Nc1ccc2c(c1)OCCO2` [CR-85] returned a negative logarithm of the Ki (pKi) of 6.7.

`Cc1cccc2nc(-c3c(O)cccc3F)c(Nc3ccc4c(c3)OCCO4)n12` [CR-86] had a pKi of 6.6.

For `Cc1ccc2nc(-c3ncccc3F)c(Nc3ccc4c(c3)OCCO4)n2c1` [CR-87], the negative-log Ki (pKi) came out at 6.6.

For the compound `COc1cc(-c2nc3cccc(C)n3c2Nc2ccc3c(c2)OCCO3)ccc1OCCF` [CR-88], the pKi came out at 6.6.

For the compound `Fc1ccc(-c2nc3cnccn3c2Nc2ccc3c(c2)OCCO3)cn1` [CR-89], the pKi is 5.5.

In turn, `COc1cccc(OC)c1-c1nc2ccncn2c1Nc1ccc2c(c1)OCCO2` [CR-90] showed a pKi of 5.6.

In the case of `COc1cc(-c2nc3cnccn3c2Nc2ccc3c(c2)OCCO3)cc(F)c1O` [CR-91], the pKi was found to be 6.6.

The compound `Fc1cccc(F)c1-c1nc2cnccn2c1Nc1ccc2c(c1)OCCO2` [CR-92] returned a pKi of 6.6.

On to `COc1cc(-c2nc3ccccn3c2Nc2ccc3c(c2)OCCO3)cc(F)c1O` [CR-93], for which the pKi was 5.7.

Compound `Clc1cccc(Cl)c1-c1nc2cnccn2c1Nc1ccc2c(c1)OCCO2` [CR-94] yielded a pKi of 6.6.

As for `COc1cc(-c2nc3cccc(C)n3c2Nc2ccc3c(c2)OCCO3)cc(F)c1O` [CR-95], the pKi worked out at 6.6.

Compound `COc1cc(-c2nc3ccc(C)cn3c2Nc2ccc3c(c2)OCCO3)cc(F)c1O` [CR-96] registered a negative logarithm of the Ki (pKi) of 6.5.

`COc1cc(-c2nc3cccc(C)n3c2Nc2ccc3c(c2)OCCO3)ccc1O` [CR-97]: the pKi stood at 6.5.

Turning to `COc1cc(-c2nc3ccncn3c2Nc2ccc3c(c2)OCCO3)ccc1O` [CR-98], the pKi is recorded as 6.5.

Regarding `Cc1ccn2c(Nc3ccc4c(c3)OCCO4)c(-c3cccc(F)n3)nc2c1` [CR-99], the pKi was 6.5.

In the case of `COc1cccc(OC)c1-c1nc2ccc(C)cn2c1Nc1ccc2c(c1)OCCO2` [CR-100], the pKi is 6.5.

In turn, `Cc1cccn2c(Nc3ccc4c(c3)OCCO4)c(-c3ccccn3)nc12` [CR-101] showed a pKi of 6.5.

`OCc1ccn2c(Nc3ccc4c(c3)OCCO4)c(-c3c(F)cccc3Cl)nc2c1` [CR-102] had a pKi of 6.4.

In turn, `Fc1cccc(Cl)c1-c1nc2cnccn2c1Nc1ccc2c(c1)OCCO2` [CR-103] had a pKi of 6.4.

Turning to `COc1ccnc2nc(-c3c(F)cccc3Cl)c(Nc3ccc4c(c3)OCCO4)n12` [CR-104], the pKi is given as 6.4.

Turning to `COc1cc(O)ccc1-c1nc2c(C)cccn2c1Nc1ccc2c(c1)OCCO2` [CR-105], the pKi amounted to 6.4.

Compound `Cc1ccn2c(Nc3ccc4c(c3)OCCO4)c(-c3ncccc3F)nc2c1` [CR-106] gave a pKi of 5.7.

The compound `COc1cc(O)ccc1-c1nc2cc(C)ccn2c1Nc1ccc2c(c1)OCCO2` [CR-107] displayed a pKi of 6.4.

On to `COc1ccnc2nc(-c3c(C)cc(O)cc3C)c(Nc3ccc4c(c3)OCCO4)n12` [CR-108], for which the pKi stood at 6.3.

The compound `COc1cccc2nc(-c3c(F)cccc3Cl)c(NC(=O)Nc3ccc4c(c3)OCCO4)n12` [CR-109] registered a pKi of 6.3.

In turn, `Fc1ccc(-c2nc3ccccn3c2Nc2ccc3c(c2)OCCO3)cn1` [CR-110] displayed a pKi of 5.7.

`COc1cc(O)ccc1-c1nc2ncccn2c1Nc1ccc2c(c1)OCCO2` [CR-111]: the pKi stood at 6.3.

Turning to `COc1cccc(F)c1-c1nc2ncccn2c1Nc1ccc2c(c1)OCCO2` [CR-112], the pKi was 6.3.

In turn, `Fc1cccnc1-c1nc2ccccn2c1Nc1ccc2c(c1)OCCO2` [CR-113] came in with a pKi of 6.3.

In turn, `COc1cccc(OC)c1-c1nc2cccc(C)n2c1Nc1ccc2c(c1)OCCO2` [CR-114] registered a pKi of 6.3.

In the case of `c1ccc(-c2nc3ncccn3c2Nc2ccc3c(c2)OCCO3)nc1` [CR-115], the pKi is on record as 6.2.

As to `COc1cccc(OC)c1-c1nc2ccccn2c1Nc1ccc2c(c1)OCCO2` [CR-116], the pKi amounted to 6.2.

`COc1cccc2nc(-c3c(F)cccc3Cl)c(NC(=O)c3ccc4c(c3)OCCO4)n12` [CR-117] gave a pKi of 5.7.

In the case of `COc1cccc(OC)c1-c1nc2cnccn2c1Nc1ccc2c(c1)OCCO2` [CR-118], the negative logarithm of the Ki (pKi) worked out at 5.8.

Turning to `Cc1ccn2c(Nc3ccc4c(c3)OCCO4)c(-c3ccccn3)nc2c1` [CR-119], the pKi turned out to be 5.9.

On to `COc1cc(O)ccc1-c1nc2ccncn2c1Nc1ccc2c(c1)OCCO2` [CR-120], for which the pKi is given as 5.9.

Regarding `COc1cccc(OC)c1-c1nc2ncccn2c1Nc1ccc2c(c1)OCCO2` [CR-121], the negative-log Ki (pKi) is recorded as 6.0.

In the case of `Fc1cccc(Cl)c1-c1nc2cccc(C(F)(F)F)n2c1Nc1ccc2c(c1)OCCO2` [CR-122], the pKi was found to be 6.0.

Take `COc1cccc(OC)c1-c1nc2c(C)cccn2c1Nc1ccc2c(c1)OCCO2` [CR-123]: the pKi is given as 6.0.

Regarding `Cc1cccc2nc(-c3c(F)cccc3Cl)c(N(C)c3ccc4c(c3)OCCO4)n12` [CR-124], the pKi is listed as 6.0.

The compound `COc1cccc(F)c1-c1nc2cnccn2c1Nc1ccc2c(c1)OCCO2` [CR-125] yielded a pKi of 5.9.

Compound `COc1cccc(OC)c1-c1nc2cc(C)ccn2c1Nc1ccc2c(c1)OCCO2` [CR-126] had a pKi of 5.9.

The compound `Cc1cccc2nc(-c3c(F)cccc3Cl)c(Nc3ccc4c(c3)OCO4)n12` [CR-127] came in with a pKi of 7.3.

(Values after patent US20110206607A1, “IMIDAZOL (1,2-A)PYRIDINES AND RELATED COMPOUNDS WITH ACTIVITY AT CANNABINOID CB2 RECEPTORS” (priority 2007, published 2011).)
